Assays:
[1] = tested on: RAW264.7 macrophage; experiment: LPS-induced ROS production in RAW264.7 macrophage (H2DCFDA, FACS); format: cell-based; conditions: pretreatment 100 μM for 1 hour; LPS 50 ng/ml, 4 hours; FIG. 7
Protocol: RAW264.7 cells were obtained from Korean Cell Line Bank and cultured in a DMEM solution containing 10% FBS, 100 U/ml penicillin, and 100 μg/ml streptomycin for use in experiments. To compare direct effects of ethanol with indirect effects caused by endotoxin, effects of LPS were identified. RAW264.7 macrophage prepared as described above was treated with LPS (50 ng/ml) for 0 to 18 hours. Separately, RAW264.7 macrophage prepared as described above was pretreated with cilostazol (100 μM) or pentoxifylline (100 μM) for 1 hour and then, treated with LPS (50 ng/ml) for 4 hours. The RAW264.7 macrophages were treated with H2DCFDA (50 μM) for 40 minutes, and then, the production of ROS was evaluated by using FACS.

[2] = tested on: primary cultured liver cells; experiment: Hoechst staining of liver cell apoptosis caused by ethanol; format: cell-based, Sprague-Dawley rats or C57BL/6 mouse; conditions: pretreatment; Hoechst 33342; FIG. 4
Protocol: Liver cells were separated from Sprague-Dawley rats (8 to 10 weeks) or C57BL/6 (8 to 10 weeks) mouse via in situ collagenase perfusion, and then cultured in DMEM containing 10% FBS, 100 U/ml penicillin, 100 μg/ml streptomycin, 4 mM L-glutamine, and 100 nM dexamethasone. After 3 hours, the culture solution was replaced with DMEM including 0.1% FBS and 10 nM dexamethasone, and then, cultured for 16 hours (overnight).
For the treatment, the cells were treated with various concentrations of ethanol (0, 100, 200 mM) alone or together with cilostazol (Otsuka) or pentoxifylline which is used as a therapeutic agent for alcoholic hepatitis, and the resultant cell reactions were compared with each other. After the treatment with ethanol, a culture dish was sealed with a parafilm to prevent evaporation of ethanol.

[3] = tested on: caspase-3; experiment: Liver caspase-3 activity in alcohol-induced acute liver injury animal model; format: in vivo; conditions: mice; oral 100 mg/kg for 4 days before ethanol 6 g/kg oral; FIG. 9
Protocol: Also, the caspase-3 activity was measured by using an activity assay kit (R&D kit). That is, caspase-3 activity was measured by using a caspase-3 colorimetric assay kit (R&D system, Minneapolis, Minn.). Liver cells were lysed by using lysis buffer, and then the protein (150 μg) was incubated with DEVD-pNA, a caspase-3 substrate at 37° C. for 2 hours, and then absorption of the product was measured at a wavelength of 405 nm.

[4] = tested on: caspase-3; experiment: Caspase-3 colorimetric activity assay kit (DEVD-pNA) in ethanol-treated liver cells; format: cell-based, Sprague-Dawley rats or C57BL/6 mouse; conditions: liver cells pretreated, FIG. 3
Protocol: (§1) Liver cells were separated from Sprague-Dawley rats (8 to 10 weeks) or C57BL/6 (8 to 10 weeks) mouse via in situ collagenase perfusion, and then cultured in DMEM containing 10% FBS, 100 U/ml penicillin, 100 μg/ml streptomycin, 4 mM L-glutamine, and 100 nM dexamethasone. After 3 hours, the culture solution was replaced with DMEM including 0.1% FBS and 10 nM dexamethasone, and then, cultured for 16 hours (overnight). For the treatment, the cells were treated with various concentrations of ethanol (0, 100, 200 mM) alone or together with cilostazol (Otsuka) or pentoxifylline which is used as a therapeutic agent for alcoholic hepatitis, and the resultant cell reactions were compared with each other. After the treatment with ethanol, a culture dish was sealed with a parafilm to prevent evaporation of ethanol. Also, the caspase-3 activity was measured by using an activity assay kit (R&D kit). That is, caspase-3 activity was measured by using a caspase-3 colorimetric assay kit (R&D system, Minneapolis, Minn.). Liver cells were lysed by using lysis buffer, and then the protein (150 μg) was incubated with DEVD-pNA, a caspase-3 substrate at 37° C. for 2 hours, and then absorption of the product was measured at a wavelength of 405 nm.

[5] = tested on: TNF-α; experiment: LPS-stimulated TNF-α production in RAW264.7 macrophage (ELISA); format: cell-based; conditions: pretreatment, LPS 50 ng/ml, 4 hours, FIG. 5
Protocol: RAW264.7 cells were obtained from Korean Cell Line Bank and cultured in a DMEM solution containing 10% FBS, 100 U/ml penicillin, and 100 μg/ml streptomycin for use in experiments. To compare direct effects of ethanol with indirect effects caused by endotoxin, effects of LPS were identified. RAW264.7 macrophage prepared as described above was treated with LPS (50 ng/ml) for 4 hours, and then, TNF-α level in the cell culture was measured by using ELISA kit (R&D).

[6] = tested on: caspase-3; experiment: Caspase-3 activity by Western blotting with cleaved caspase-3 antibody in ethanol-treated liver cells; format: cell-based, Sprague-Dawley rats or C57BL/6 mouse; conditions: pretreatment 100 μM; ethanol 24 hours; FIG. 2
Protocol: as §1, with “ethanol.” for “ethanol. Also, the caspase-3 activity was measured by using an activity assay kit (R&D kit). That is, caspase-3 activity was measured by using a caspase-3 colorimetric assay kit (R&D system, Minneapolis, Minn.). Liver cells were lysed by using lysis buffer, and then the protein (150 μg) was incubated with DEVD-pNA, a caspase-3 substrate at 37° C. for 2 hours, and then absorption of the product was measured at a wavelength of 405 nm.”

[7] = tested on: primary cultured liver cells; experiment: MTS assay, viability of primary cultured liver cells treated with ethanol; format: cell-based, Sprague-Dawley rats or C57BL/6 mouse; conditions: pretreatment 100 μM; ethanol 100, 200 mM for 24 hour; vs DMSO group; FIG. 1
Protocol: Liver cells were separated from Sprague-Dawley rats (8 to 10 weeks) or C57BL/6 (8 to 10 weeks) mouse via in situ collagenase perfusion, and then cultured in DMEM containing 10% FBS, 100 U/ml penicillin, 100 μg/ml streptomycin, 4 mM L-glutamine, and 100 nM dexamethasone. After 3 hours, the culture solution was replaced with DMEM including 0.1% FBS and 10 nM dexamethasone, and then, cultured for 16 hours (overnight). For the treatment, the cells were treated with various concentrations of ethanol (0, 100, 200 mM) alone or together with cilostazol (Otsuka) or pentoxifylline which is used as a therapeutic agent for alcoholic hepatitis, and the resultant cell reactions were compared with each other. After the treatment with ethanol, a culture dish was sealed with a parafilm to prevent evaporation of ethanol. MTS assay was performed in the following manner to identify effects of cilostazol on decreased liver cell viability caused by ethanol. That is, the viability of liver cells was measured by using a MTS assay kit (Promega, Madison, Wis., USA). […] An MTS solution were added to the respective wells and then, the cells were incubated at 37° C. for 4 hours, and absorption of the result was measured at a wavelength of 490 nm.

[8] = tested on: FAS (fatty acid synthase) gene; experiment: Liver FAS gene expression (real-time PCR) in alcohol-induced acute liver injury animal model; format: in vivo; conditions: mice; oral 100 mg/kg for 4 days before ethanol 6 g/kg oral; FAS mRNA normalized to β-actin; FIG. 11
Protocol: Eight-week old mice were subjected to binge alcohol drinking to induce liver damage. That is, mice were administered orally 6 g/kg of ethanol once. Cilostazol was orally administered in doses of 50 mg/kg/day and 100 mg/kg/day for 4 days before ethanol administration, and ethanol was orally administered 1 h after the last cilostazol administration. Then, animals were sacrificed at different time after ethanol administration.
Effects of cilostazol on the expression of FAS gene were identified by real-time PCR assay. That is, total RNA was extracted from liver tissues by using a trizol reagent, and then 1 μg of total RNA was reverse-transcribed into cDNA by using high-performance cDNA reverse transcription kit (Applied Biosystems, Foster City, Calif., USA). The PCR reaction was performed such that cDNA, the respective primers were reacted with power SYBR Green PCR master mix (Applied Biosystems) by using real-time PCR 7500 software system (Applied Biosystem). The PCR conditions were initial incubation at 95° C. for 10 minutes, followed by 45 cycles of 95° C. for 15 seconds, 55° C. for 20 seconds, and 72° C. for 35 seconds.
FAS mRNA level was normalized to β-actin mRNA level, and shown in fold increase.

SMILES	production of ROS induced by LPS, effect of pretreatment [1]	nuclear fragmentation caused by ethanol [2]	liver caspase-3 activity after ethanol administration [3]	caspase-3 activity (activity assay kit) increased by ethanol, effect of pretreatment [4]	decrease of LPS-increased TNF-α level in culture media ([5]; p=0.016)	caspase-3 activity (cleaved caspase-3, Western blot) increased by ethanol, effect of pretreatment [6]	liver cell viability decreased by ethanol, effect of pretreatment [7]	reduction of liver FAS gene expression after ethanol administration [8]	inhibitory effect on LPS-increased TNF-α level in culture media [5]
O=C1CCc2cc(OCCCCc3nnnn3C3CCCCC3)ccc2N1 [cilostazol]	neither cilostazol nor pentoxifylline significantly inhibited	reduced	significantly reduced	almost completely inhibited	~50%	cilostazol showed better inhibitory effects than pentoxifylline	significantly recovered	about 30%	
CC(=O)CCCCn1c(=O)c2c(ncn2C)n(C)c1=O [pentoxifylline]	neither cilostazol nor pentoxifylline significantly inhibited			reduced caspase-3 activity caused by ethanol, but the inhibitory effect of pentoxifylline was smaller than that of cilostazol		reduced	did not significantly improve the cell viability		did not show significant inhibitory effects
